Source: PubChem BioAssay (NCI)
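Protocol summary: plate cells (96-well), add compound at 5 concentrations, incubate 48 h, interpolate endpoints linearly. The concentration for 50% growth inhibition is given as GI50. TGI: total growth inhibition.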

Legend:
Experiment in all cases: NCI tumour cell line growth inhibition, 48 h
[1] = tested on: 786-0 renal
[2] = tested on: A498 renal
[3] = tested on: A549 NSCLC
[4] = tested on: ACHN renal
[5] = tested on: BT-549 breast
[6] = tested on: CAKI-1 renal
[7] = tested on: CCRF-CEM leukemia
[8] = tested on: COLO 205 colon
[9] = tested on: DU-145 prostate
[10] = tested on: EKVX NSCLC
[11] = tested on: HCC-2998 colon
[12] = tested on: HCT-116 colon
[13] = tested on: HCT-15 colon
[14] = tested on: HL-60(TB) leukemia
[15] = tested on: HOP-62 NSCLC
[16] = tested on: HOP-92 NSCLC
[17] = tested on: HS 578T breast
[18] = tested on: HT29 colon
[19] = tested on: IGROV1 ovarian
[20] = tested on: K-562 leukemia
[21] = tested on: KM12 colon
[22] = tested on: LOX IMVI melanoma
[23] = tested on: M14 melanoma
[24] = tested on: MALME-3M melanoma
[25] = tested on: MCF7 breast
[26] = tested on: MDA-MB-435
[27] = tested on: MDA-MB-468 breast
[28] = tested on: MOLT-4 leukemia
[29] = tested on: NCI-H226 lung
[30] = tested on: NCI-H23 lung
[31] = tested on: NCI-H460 lung
[32] = tested on: NCI-H522 lung
[33] = tested on: NCI/ADR-RES ovarian
[34] = tested on: OVCAR-3 ovarian
[35] = tested on: OVCAR-4 ovarian
[36] = tested on: OVCAR-5 ovarian
[37] = tested on: OVCAR-8 ovarian
[38] = tested on: PC-3 prostate
[39] = tested on: RPMI-8226 leukemia
[40] = tested on: RXF 393 renal
[41] = tested on: SF-268 CNS
[42] = tested on: SF-295 CNS
[43] = tested on: SF-539 CNS
[44] = tested on: SK-MEL-28 melanoma
[45] = tested on: SK-MEL-5 melanoma
[46] = tested on: SK-OV-3 ovarian
[47] = tested on: SN12C renal
[48] = tested on: SNB-19 CNS
[49] = tested on: SR leukemia
[50] = tested on: SW-620 colon
[51] = tested on: T-47D breast
[52] = tested on: TK-10 renal
[53] = tested on: U251 CNS
[54] = tested on: UACC-257 melanoma
[55] = tested on: UACC-62 melanoma

O=C(Nc1nc2ccc([N+](=O)[O-])cc2s1)Nc1cc(Cl)ccc1I
GI50 [1]: 7.32 µM
TGI [1]: 20.2 µM
GI50 [2]: 4.25 µM
TGI [2]: 16.1 µM
GI50 [3]: 9.8 µM
TGI [3]: 21.6 µM
GI50 [4]: 5.29 µM
TGI [4]: 17.4 µM
GI50 [5]: 3.56 µM
TGI [5]: 14.5 µM
GI50 [6]: 5.87 µM
TGI [6]: 19.3 µM
GI50 [7]: 3.4 µM
TGI [7]: 12.4 µM
GI50 [8]: 10.8 µM
TGI [8]: 22.9 µM
GI50 [9]: 8.17 µM
TGI [9]: 20.6 µM
GI50 [10]: 3.6 µM
TGI [10]: 13.6 µM
GI50 [11]: 4.7 µM
TGI [11]: 16.2 µM
GI50 [12]: 3.24 µM
TGI [12]: 12 µM
GI50 [13]: 4.04 µM
TGI [13]: 15.6 µM
GI50 [14]: 3.81 µM
TGI [14]: 16.8 µM
GI50 [15]: 9.29 µM
TGI [15]: 21.7 µM
GI50 [16]: 2.63 µM
TGI [16]: 7.46 µM
GI50 [17]: 4.71 µM
TGI [17]: 20.8 µM
GI50 [18]: 11.4 µM
TGI [18]: 24.2 µM
GI50 [19]: 4.49 µM
TGI [19]: 15.8 µM
GI50 [20]: 3.55 µM
TGI [20]: 13.6 µM
GI50 [21]: 5.29 µM
TGI [21]: 17.7 µM
GI50 [22]: 5.85 µM
TGI [22]: 18.1 µM
GI50 [23]: 10 µM
TGI [23]: 22 µM
GI50 [24]: 3.26 µM
TGI [24]: 13.1 µM
GI50 [25]: 3.05 µM
TGI [25]: 12.1 µM
GI50 [26]: 6.4 µM
TGI [26]: 21 µM
GI50 [27]: 3.54 µM
TGI [27]: 10.6 µM
GI50 [28]: 3.43 µM
TGI [28]: 12 µM
GI50 [29]: 7.18 µM
TGI [29]: 20.5 µM
GI50 [30]: 2.78 µM
TGI [30]: 8.9 µM
GI50 [31]: 4.16 µM
TGI [31]: 15.7 µM
GI50 [32]: 2.95 µM
TGI [32]: 10.6 µM
GI50 [33]: 4.85 µM
TGI [33]: 18.1 µM
GI50 [34]: 4.29 µM
TGI [34]: 14.8 µM
GI50 [35]: 5.28 µM
TGI [35]: 19.3 µM
GI50 [36]: 11.6 µM
TGI [36]: 23.9 µM
GI50 [37]: 12.9 µM
TGI [37]: 26.7 µM
GI50 [38]: 3.78 µM
TGI [38]: 13.5 µM
GI50 [39]: 2.24 µM
TGI [39]: 5.66 µM
GI50 [40]: 7.38 µM
TGI [40]: 20.3 µM
GI50 [41]: 9.35 µM
TGI [41]: 23.9 µM
GI50 [42]: 5.56 µM
TGI [42]: 18.6 µM
GI50 [43]: 5.09 µM
TGI [43]: 17 µM
GI50 [44]: 4.75 µM
TGI [44]: 16.6 µM
GI50 [45]: 2.7 µM
TGI [45]: 7.52 µM
GI50 [46]: 7.84 µM
TGI [46]: 20.4 µM
GI50 [47]: 4.06 µM
TGI [47]: 15.8 µM
GI50 [48]: 5.5 µM
TGI [48]: 18.1 µM
GI50 [49]: 3.16 µM
TGI [49]: 12.4 µM
GI50 [50]: 5.46 µM
TGI [50]: 18.6 µM
GI50 [51]: 3.7 µM
TGI [51]: 14.5 µM
GI50 [52]: 8.2 µM
TGI [52]: 20.7 µM
GI50 [53]: 5.36 µM
TGI [53]: 17.8 µM
GI50 [54]: 6.8 µM
TGI [54]: 19.9 µM
GI50 [55]: 4.11 µM
TGI [55]: 15.4 µM
